Results from patent publication US4061740A, “Liquid compositions containing a polyethylene glycol safener and an organophosphorus pesticide” (priority 1976, dated 1977).

Tested on: Root-knot Nematode (Meloidogyne incognita)
Assay: Control of root-knot nematode on tomato in the greenhouse
Format: in vivo, Meloidogyne incognita (on tomato, Lycopersicon esculentum)
Description: Evaluation of a liquid formulation consisting of a solution of 2-diethoxyphosphinylimino-1,3-dithietane in polyethylene glycol for the control of root-knot nematode (Meloidogyne incognita) on tomato in the greenhouse.
1. 2-Diethoxyphosphinylimino-1,3-dithietane, 91% real. (Active ingredient; a.i.)
2. Liquid formulation consisting of 20.9%, by weight, of a.i. and 79.1%, by weight, of polyethylene glycol of an average molecular weight of 400.
Tomato (Lycopersicon esculentum; Cv. Bonny Best).
Root-knot Nematode (Meloidogyne incognita) inoculum. [formula] 2-Diethoxyphosphinylimino-1,3-dithietane at 0.75 mg, 1.5 mg and 3.0 mg/liter of soil. Polyethylene glycol blank at 14.4 mg/liter of soil.
All compounds are made up as acetone solutions. One liter of moist potting soil is placed in a suitable stainless steel beaker. One ml of candidate solution is distributed, drop by drop, over the surface of the soil. The beaker is then capped and placed on an off-center rotary mixer and mixed for 2 minutes (about 60 revolutions). After mixing, the soil is divided between two 0.5 liter paper cups by filling the cups half full of soil, then distributing 25 ml root-knot nematode inoculum on the soil and filling the remainder of the container with treated soil. Seedling tomato plants are transplanted into the cups of soil the same day, watered and removed to the greenhouse. After about 4 weeks, the tomato plants are carefully removed from the containers, the soil washed from the roots, and the roots are then examined for nematode galling.
The roots are indexed for galling by the following system: […]

## CCOP(=O)(N=C1SCS1)OCC [Formulation 1, 2-Diethoxyphosphinylimino-1,3-dithietane]
0.75 mg/l active ingredient
  Root-knot index, Average of 3 Replicates: 7.0
0.75 mg/l active ingredient, replicate 1
  Root-knot index: 8 (61-70% of roots galled)
0.75 mg/l active ingredient, replicate 2
  Root-knot index: 8 (61-70% of roots galled)
0.75 mg/l active ingredient, replicate 3
  Root-knot index: 5 (31-40% of roots galled)
0.75 mg/l of soil
  protection of the tomato roots from the root-knot nematode: poor
1.5 mg/l active ingredient
  Root-knot index, Average of 3 Replicates: 4.7
1.5 mg/l active ingredient, replicate 1
  Root-knot index: 6 (41-50% of roots galled)
1.5 mg/l active ingredient, replicate 2
  Root-knot index: 6 (41-50% of roots galled)
1.5 mg/l active ingredient, replicate 3
  Root-knot index: 2 (6-10% of roots galled)
1.5 mg/l of soil
  protection of the tomato roots from the root-knot nematode: poor
3.0 mg/l active ingredient, replicate 1
  Root-knot index: 0
3.0 mg/l active ingredient, replicate 2
  Root-knot index: 0
3.0 mg/l active ingredient, replicate 3
  Root-knot index: T (less than 1% of roots with galls.)
3.0 mg/l of soil
  protection of the tomato roots from the root-knot nematode: excellent
